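In this assay, cells in 96-well plates receive the compound at five concentrations for 48 hours. Endpoints are linearly interpolated between the surrounding concentrations. The concentration for 50% growth inhibition is given as GI50.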 Calls of active or inactive are those of the source. Cut-off read from the data, not from the text of the source: active = GI50 up to about 1.1 µM and inactive = higher.
Experiments:
Test in all cases: growth of human tumour cells (NCI), 48 h
ACHN = tested on: ACHN
RPMI-8226 = tested on: RPMI-8226
UO-31 = tested on: UO-31
MOLT-4 = tested on: MOLT-4
HCT-116 = tested on: HCT-116
MDA-MB-231 = tested on: MDA-MB-231
SN12C = tested on: SN12C
OVCAR-5 = tested on: OVCAR-5
TK-10 = tested on: TK-10
U-251 = tested on: U-251
EKVX = tested on: EKVX
IGROV-1 = tested on: IGROV-1
OVCAR-3 = tested on: OVCAR-3
UACC-62 = tested on: UACC-62
SNB-19 = tested on: SNB-19
HCT-15 = tested on: HCT-15
MCF7 = tested on: MCF7
BT-549 = tested on: BT-549
RXF 393 = tested on: RXF 393
HL-60 = tested on: HL-60
786-0 = tested on: 786-0
DU-145 = tested on: DU-145
MDA-MB-435 = tested on: MDA-MB-435
NCI-H460 = tested on: NCI-H460
SF-295 = tested on: SF-295
COLO 205 = tested on: COLO 205
SK-MEL-28 = tested on: SK-MEL-28
SF-268 = tested on: SF-268
SK-MEL-2 = tested on: SK-MEL-2
K562 = tested on: K562
PC-3 = tested on: PC-3
HOP-62 = tested on: HOP-62
LOX IMVI = tested on: LOX IMVI
Malme-3M = tested on: Malme-3M
T47D = tested on: T47D
A498 = tested on: A498
HT-29 = tested on: HT-29
Hs-578T = tested on: Hs-578T
KM12 = tested on: KM12
SK-MEL-5 = tested on: SK-MEL-5
UACC-257 = tested on: UACC-257
OVCAR-8 = tested on: OVCAR-8
NCI-H226 = tested on: NCI-H226
SW-620 = tested on: SW-620
OVCAR-4 = tested on: OVCAR-4
NCI-H23 = tested on: NCI-H23
SR = tested on: SR
HCC 2998 = tested on: HCC 2998
NCI-H522 = tested on: NCI-H522
CAKI-1 = tested on: CAKI-1
NCI/ADR-RES = tested on: NCI/ADR-RES
SNB-75 = tested on: SNB-75
SF-539 = tested on: SF-539
M14 = tested on: M14
SK-OV-3 = tested on: SK-OV-3
CCRF-CEM = tested on: CCRF-CEM
MDA-N = tested on: MDA-N
A549 = tested on: A549

Measured: GI50

COc1ccc(-n2c(C)nc3ccc(NC(=S)Nc4ccccc4)cc3c2=O)cc1
inactive: ACHN 65.9 µM | RPMI-8226 28.6 µM | UO-31 > 100 µM | MOLT-4 32.1 µM | HCT-116 39.2 µM | MDA-MB-231 > 100 µM | SN12C > 100 µM | OVCAR-5 > 100 µM | TK-10 > 100 µM | U-251 > 100 µM | EKVX 65.2 µM | IGROV-1 > 100 µM | OVCAR-3 34.8 µM | UACC-62 61.4 µM | SNB-19 > 100 µM | MCF7 43.2 µM | BT-549 70 µM | RXF 393 57.1 µM | HL-60 53.3 µM | 786-0 > 100 µM | DU-145 > 100 µM | MDA-MB-435 61.5 µM | NCI-H460 12.4 µM | SF-295 > 100 µM | COLO 205 64.1 µM | SK-MEL-28 96.2 µM | SF-268 > 100 µM | SK-MEL-2 56.1 µM | K562 51.6 µM | PC-3 35.7 µM | HOP-62 > 100 µM | LOX IMVI 43.7 µM | Malme-3M > 100 µM | T47D 44.6 µM | A498 > 100 µM | HT-29 62.4 µM | Hs-578T > 100 µM | KM12 72.3 µM | SK-MEL-5 37.4 µM | UACC-257 51.8 µM | OVCAR-8 > 100 µM | NCI-H226 43.2 µM | SW-620 > 100 µM | OVCAR-4 86.1 µM | NCI-H23 52.7 µM | SR 60.7 µM | HCC 2998 26.2 µM | NCI-H522 56.8 µM | CAKI-1 > 100 µM | NCI/ADR-RES > 100 µM | SNB-75 > 100 µM
76.2 µM: HCT-15

O=C(CP(c1ccccc1)c1ccccc1)c1cccc(C(=O)CP(c2ccccc2)c2ccccc2)c1
49.3 µM: HCT-15
inactive: ACHN 84.1 µM | RPMI-8226 12.6 µM | UO-31 12.5 µM | MOLT-4 6.75 µM | HCT-116 36.8 µM | MDA-MB-231 68.9 µM | SN12C 56.8 µM | OVCAR-5 > 100 µM | TK-10 > 100 µM | SF-539 > 100 µM | U-251 58.5 µM | EKVX 56.9 µM | IGROV-1 > 100 µM | M14 52.6 µM | UACC-62 78.3 µM | SNB-19 43.8 µM | MCF7 17.9 µM | RXF 393 61.7 µM | HL-60 16.2 µM | 786-0 85.7 µM | DU-145 55.8 µM | MDA-MB-435 45.7 µM | SK-OV-3 > 100 µM | NCI-H460 19.7 µM | SF-295 26.1 µM | COLO 205 12.1 µM | CCRF-CEM 6.76 µM | MDA-N 70.3 µM | SK-MEL-28 92 µM | SF-268 80.9 µM | SK-MEL-2 > 100 µM | K562 8.02 µM | PC-3 37.2 µM | HOP-62 96.6 µM | T47D 14.2 µM | A549 15.6 µM | HT-29 8.2 µM | Hs-578T 62.7 µM | KM12 26.1 µM | SK-MEL-5 23.4 µM | UACC-257 32.1 µM | OVCAR-8 89.7 µM | NCI-H226 66.4 µM | SW-620 > 100 µM | OVCAR-4 26.1 µM | SR 15.7 µM | HCC 2998 74.1 µM | CAKI-1 86.3 µM | NCI/ADR-RES > 100 µM | SNB-75 55.6 µM

Reference: ChEMBL document CHEMBL1201862, “PubChem BioAssay data set” (2004)
